Starred links: 1 amine or outer side, 2 acyl side, 3 side chain; linkers in the order of their positions; H or OH if unused. Non-standard residues stand in square brackets, D forms with d. Residues, ends and D or L forms follow the SMILES beside them. X3 = O=C(CNC(=S)[C@H](Cc1ccccc1)N[*:1])[*:2]; 1Nal = N[C@@H](Cc1cccc2ccccc12)C(=O)O; Arg(Me) = CNC(=N)NCCC[C@H](N)C(=O)O; Bta = N[C@@H](Cc1csc2ccccc12)C(=O)O; Cha = N[C@@H](CC1CCCCC1)C(=O)O; azaGly = NNC(=O)O

T1 sequence (Q969F8 whole entry L364H): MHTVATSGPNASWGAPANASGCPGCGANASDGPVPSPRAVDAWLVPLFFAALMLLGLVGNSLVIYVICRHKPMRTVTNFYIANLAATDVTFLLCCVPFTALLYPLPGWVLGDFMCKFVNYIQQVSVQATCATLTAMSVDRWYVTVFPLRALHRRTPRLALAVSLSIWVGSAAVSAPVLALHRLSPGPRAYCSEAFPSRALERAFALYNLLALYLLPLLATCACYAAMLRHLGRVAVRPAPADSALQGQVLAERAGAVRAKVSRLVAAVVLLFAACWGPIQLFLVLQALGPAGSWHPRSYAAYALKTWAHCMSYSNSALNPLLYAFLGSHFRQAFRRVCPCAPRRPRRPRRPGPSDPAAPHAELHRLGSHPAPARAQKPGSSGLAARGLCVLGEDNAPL

The assay has as its target T1, hOT7T175 (Homo sapiens, UniProt Q969F8, L364H).
T1 construct: expressed in transfected cells
As to the kind of experiment: Intracellular Ca ion level-increasing activity using FLIPR (180 seconds; specific activity to Metastin (1-54)). In kind it is cell-based. The settings on record: hOT7T175/CHO, relative to Metastin (1-54) = 1.
Regarding `CC(C)C[C@H](NC(=O)CNC(=O)[C@H](Cc1ccccc1)NC(=O)[C@H](CO)NC(=O)[C@H](CC(N)=O)NC(=O)[C@H](Cc1c[nH]c2ccccc12)NC(=O)[C@H](CC(N)=O)NC(=O)[C@@H](N)Cc1ccc(O)cc1)C(=O)N[C@@H](CCCNC(=N)N)C(=O)N[C@@H](Cc1ccc([N+](=O)[O-])cc1)C(N)=O` [Compound No. 132], the “Specific Act. (intracellular Ca ion level-increasing activity, specific activity to Metastin (1-54))” value is reported as 10.

Consider `CC(C)C[C@H](NC(=O)CNC(=O)[C@H](Cc1ccccc1)NC(=O)[C@H](CO)NC(=O)[C@H](CC(N)=O)NC(=O)[C@H](Cc1c[nH]c2ccccc12)NC(=O)[C@H](CC(N)=O)NC(=O)[C@@H](N)Cc1ccc(O)cc1)C(=O)N[C@@H](CCCNC(=N)N)C(=O)N[C@@H](Cc1cccc2ccccc12)C(N)=O` [Compound No. 133] (H-YNWNSFGLR[1Nal]-NH2), for which the “Specific Act. (intracellular Ca ion level-increasing activity, specific activity to Metastin (1-54))” value came to 3. To `CNC(=N)NCCC[C@H](NC(=O)[C@H](CC(C)C)NC(=O)CNC(=O)[C@H](Cc1ccccc1)NC(=O)[C@H](CO)NC(=O)[C@H](CC(N)=O)NC(=O)[C@@H](Cc1c[nH]c2ccccc12)NC(=O)[C@H](CC(N)=O)NC(=O)[C@H](N)Cc1ccc(O)cc1)C(=O)N[C@@H](Cc1ccccc1)C(N)=O` [Compound No. 142, D-Tyr-Asn-D-Trp-Asn-Ser-Phe-Gly-Leu-Arg(Me)-Phe-NH2] belongs 2; to `CNC(=N)NCCC[C@H](NC(=O)[C@H](CC(C)C)NC(=O)CNC(=O)[C@H](Cc1ccccc1)NC(=O)[C@H](CO)NC(=O)[C@H](CC(N)=O)NC(=O)[C@@H](Cc1c[nH]c2ccccc12)NC(=O)[C@H](CC(N)=O)NC(=O)[C@@H](N)Cc1ccc(O)cc1)C(=O)N[C@@H](Cc1ccccc1)C(N)=O` [Compound No. 143, Tyr-Asn-D-Trp-Asn-Ser-Phe-Gly-Leu-Arg(Me)-Phe-NH2], 3; to `CC(C)C[C@H](NC(=O)CNC(=O)[C@H](Cc1cccc2ccccc12)NC(=O)[C@H](CO)NC(=O)[C@H](CC(N)=O)NC(=O)[C@H](Cc1c[nH]c2ccccc12)NC(=O)[C@H](CC(N)=O)NC(=O)[C@@H](N)Cc1ccc(O)cc1)C(=O)N[C@@H](CCCNC(=N)N)C(=O)N[C@@H](Cc1ccccc1)C(N)=O` [Compound No. 151, Tyr-Asn-Trp-Asn-Ser-Nal(1)-Gly-Leu-Arg-Phe-NH2] (H-YNWNS[1Nal]GLRF-NH2), 1. In the case of `CC(C)C[C@H](NC(=O)CNC(=O)[C@H](Cc1ccc(F)cc1)NC(=O)[C@H](CO)NC(=O)[C@H](CC(N)=O)NC(=O)[C@H](Cc1c[nH]c2ccccc12)NC(=O)[C@H](CC(N)=O)NC(=O)[C@@H](N)Cc1ccc(O)cc1)C(=O)N[C@@H](CCCNC(=N)N)C(=O)N[C@@H](Cc1ccccc1)C(N)=O` [Compound No. 154, Tyr-Asn-Trp-Asn-Ser-Phe(4F)-Gly-Leu-Arg-Phe-NH2] it was 5; in that of `CC(C)C[C@H](NC(=O)CNC[C@H](Cc1ccccc1)NC(=O)[C@H](CO)NC(=O)[C@H](CC(N)=O)NC(=O)[C@H](Cc1c[nH]c2ccccc12)NC(=O)[C@H](CC(N)=O)NC(=O)[C@@H](N)Cc1ccc(O)cc1)C(=O)N[C@@H](CCCNC(=N)N)C(=O)N[C@@H](Cc1ccccc1)C(N)=O` [Compound No. 163, Tyr-Asn-Trp-Asn-Ser-PheΨ(CH2NH)Gly-Leu-Arg-Phe-NH2], 1. With `CC(C)C[C@H](NC(=O)CNC(=S)[C@H](Cc1ccccc1)NC(=O)[C@H](CO)NC(=O)[C@H](CC(N)=O)NC(=O)[C@H](Cc1c[nH]c2ccccc12)NC(=O)[C@H](CC(N)=O)NC(=O)[C@@H](N)Cc1ccc(O)cc1)C(=O)N[C@@H](CCCNC(=N)N)C(=O)N[C@@H](Cc1ccccc1)C(N)=O` [Compound No. 166, Tyr-Asn-Trp-Asn-Ser-PheΨ(CSNH)Gly-Leu-Arg-Phe-NH2] (H-YNWNS[X3]LRF-NH2), the “Specific Act. (intracellular Ca ion level-increasing activity, specific activity to Metastin (1-54))” value is 5.

On to `CNC(=N)NCCC[C@H](NC(=O)[C@H](CC(C)C)NC(=O)CNC(=O)[C@H](Cc1ccccc1)NC(=O)[C@H](CO)NC(=O)[C@H](CC(N)=O)NC(=O)[C@H](C)NC(=O)[C@H](CC(N)=O)NC(=O)[C@H](N)Cc1ccc(O)cc1)C(=O)N[C@@H](Cc1ccccc1)C(N)=O` [Compound No. 169] (H-[dY]NANSFGL[Arg(Me)]F-NH2), for which the “Specific Act. (intracellular Ca ion level-increasing activity, specific activity to Metastin (1-54))” value is recorded as 2.

Regarding `CNC(=N)NCCC[C@H](NC(=O)[C@H](CC(C)C)NC(=O)CNC(=O)[C@H](Cc1ccccc1)NC(=O)[C@H](CO)NC(=O)[C@H](CC(N)=O)NC(=O)[C@H](CO)NC(=O)[C@H](CC(N)=O)NC(=O)[C@H](N)Cc1ccc(O)cc1)C(=O)N[C@@H](Cc1ccccc1)C(N)=O` [Compound No. 170] (H-[dY]NSNSFGL[Arg(Me)]F-NH2), the “Specific Act. (intracellular Ca ion level-increasing activity, specific activity to Metastin (1-54))” value stood at 1. As for `CNC(=N)NCCC[C@H](NC(=O)[C@H](CC(C)C)NC(=O)CNC(=O)[C@H](Cc1ccccc1)NC(=O)[C@H](CO)NC(=O)[C@H](CC(N)=O)NC(=O)[C@H](CC1CCCCC1)NC(=O)[C@H](CC(N)=O)NC(=O)[C@H](N)Cc1ccc(O)cc1)C(=O)N[C@@H](Cc1ccccc1)C(N)=O` [Compound No. 171, D-Tyr-Asn-Cha-Asn-Ser-Phe-Gly-Leu-Arg(Me)-Phe-NH2] (H-[dY]N[Cha]NSFGL[Arg(Me)]F-NH2), the “Specific Act. (intracellular Ca ion level-increasing activity, specific activity to Metastin (1-54))” value is given as 10. To `CNC(=N)NCCC[C@H](NC(=O)[C@H](CC(C)C)NC(=O)CNC(=O)[C@H](CC1CCCCC1)NC(=O)[C@H](CO)NC(=O)[C@H](CC(N)=O)NC(=O)[C@H](CC1CCCCC1)NC(=O)[C@H](CC(N)=O)NC(=O)[C@H](N)Cc1ccc(O)cc1)C(=O)N[C@@H](Cc1c[nH]c2ccccc12)C(N)=O` [Compound No. 182, D-Tyr-Asn-Cha-Asn-Ser-Cha-Gly-Leu-Arg(Me)-Trp-NH2] (H-[dY]N[Cha]NS[Cha]GL[Arg(Me)]W-NH2) belongs 5; to `CC(C)C[C@H](NC(=O)CNC(=O)[C@H](Cc1ccccc1)NC(=O)[C@H](CO)NC(=O)[C@H](CC(N)=O)NC(=O)[C@H](Cc1c[nH]c2ccccc12)NC(=O)[C@H](CC(N)=O)NC(=O)[C@@H](N)Cc1ccc(O)cc1)C(=O)N[C@@H](CCCNC(=N)N)C(=O)N[C@@H](Cc1csc2ccccc12)C(N)=O` [Compound No. 189] (H-YNWNSFGLR[Bta]-NH2), 10.

With `CNC(=N)NCCC[C@H](NC(=O)[C@H](CC(C)C)NC(=O)NNC(=O)[C@H](Cc1ccccc1)NC(=O)[C@H](CO)NC(=O)[C@H](CC(N)=O)NC(=O)[C@H](CC1CCCCC1)NC(=O)[C@H](CC(N)=O)NC(=O)[C@H](N)Cc1ccc(O)cc1)C(=O)N[C@@H](Cc1ccccc1)C(N)=O` [Compound No. 190, D-Tyr-Asn-Cha-Asn-Ser-Phe-AzaGly-Leu-Arg(Me)-Phe-NH2] (H-[dY]N[Cha]NSF[azaGly]L[Arg(Me)]F-NH2), the “Specific Act. (intracellular Ca ion level-increasing activity, specific activity to Metastin (1-54))” value came out at 10. As for `CCNC(=N)NCCC[C@H](NC(=O)[C@H](CC(C)C)NC(=O)CNC(=O)[C@H](Cc1ccccc1)NC(=O)[C@H](CO)NC(=O)[C@H](CC(N)=O)NC(=O)[C@H](Cc1c[nH]c2ccccc12)NC(=O)[C@H](CC(N)=O)NC(=O)[C@H](N)Cc1ccc(O)cc1)C(=O)N[C@@H](Cc1ccccc1)C(N)=O` [Compound No. 192], the “Specific Act. (intracellular Ca ion level-increasing activity, specific activity to Metastin (1-54))” value stood at 1.
